In PMC13079396, “Use of a cytochrome P450 humanized mouse model to refine schistosomiasis drug discovery” (Proceedings of the National Academy of Sciences of the …, 2026):
Values joined by “and” are separate entries in the source; they are usually repeats but may differ in a detail not shown here. Equal values may be shown once. Read-outs that look alike come from different tables or passages of the source.

Legend:
[1] = format: in vitro ADME; settings: mouse, microsomes
S. mansoni [2] = assay: PZQ-induced efficacy (worm and egg burden reduction) in S. mansoni infected 8HUM mice; format: in vivo, Schistosoma mansoni; settings: for worm burden reduction: day 47
Description: (§1) Lower […] Analytical acceptance criteria were reported previously (1). […] Reactions were […]

S. mansoni [3] = assay: PZQ-induced efficacy (worm and egg burden reduction) in S. mansoni infected WT mice; format: in vivo, Schistosoma mansoni
Description: as §1

S. mansoni [4] = settings: cited from earlier work
[5] = format: in vitro ADME; settings: human, microsomes
Protocol: Supernatants were analysed by LC-MS/MS immediately. […] Chromatographic separation was achieved using a previously described method (2) with minor modifications. […] The flow rate was 1.2 mL/min. […] used. […] Intrinsic clearance determination […] Lower […]

[6] = Range-finding PK study, uninfected 8HUM mice, oral rac-PZQ; format: in vivo, mouse; settings: for AUC(0-t) / Cmax: female, mouse, whole blood, uninfected 8HUM mice, single oral 25 mg/kg rac-PZQ, total blood, n = 2
Protocol: Dose formulations were prepared on the day of dosing. […] Supernatants were analysed by LC-MS/MS immediately. […] Chromatographic separation was […] […] […] used. […] Intrinsic clearance determination […] […] Lower […] […] Analytical acceptance criteria were reported previously (1).

[7] = PK in S. mansoni infected WT mice, oral rac-PZQ; format: in vivo; settings: female, mouse, whole blood, single oral 400 mg/kg rac-PZQ at 41 d postinfection, total blood, n = 3
[8] = Range-finding PK study, uninfected WT mice, oral rac-PZQ; settings: female, WT (wild-type), mouse, whole blood, 400 mg/kg
[9] = PK in S. mansoni infected 8HUM mice, oral rac-PZQ; format: in vivo; settings: female, mouse, whole blood, total blood, n = 3
[10] = single oral 400 mg/kg, day 47, 400 mg/kg

Structure (SMILES)	AUC(0-t) [6] [ng·h/mL]	Cmax [6] [ng/mL]	AUC(0-t) [7] [ng·h/mL]	Cmax [7] [ng/mL]	AUC(0-t) [8] [ng·h/mL]	Cmax [8] [ng/mL]	AUC(0-t) ([9]; single oral 100 mg/kg rac-PZQ) [ng·h/mL]	Cmax ([9]; single oral 100 mg/kg rac-PZQ) [ng/mL]	AUC(0-t) ([9]; single oral 200 mg/kg rac-PZQ) [ng·h/mL]	Cmax ([9]; single oral 200 mg/kg rac-PZQ) [ng/mL]	also measured
O=C(C1CCCCC1)N1CC(=O)N2CCc3ccccc3C2C1 (racemic) [rac-PZQ, praziquantel]	–	–	–	–	–	–	–	–	–	–	Microsomal CLint [1]: 2.7 mL/min/g; worm burden reduction (S. mansoni [2]; 8HUM mice, single oral 100 mg/kg, 100 mg/kg): 92%; worm burden reduction (S. mansoni [2]; 8HUM mice, single oral 100 mg/kg, listed as PZQ, 100 mg/kg): > 90%; worm burden reduction (S. mansoni [2]; 8HUM mice, single oral 200 mg/kg): 98%; reductions in worm burdens (S. mansoni [2]; 8HUM mice, single oral doses of 100 to 200 mg/kg bodyweight): > 90%; increase in efficacy in 8HUM mice vs WT mice at the same dose (S. mansoni [2]; single 100 mg/kg oral dose, 8HUM (this study) vs WT (ref 7)): approximately twofold; reduction in adult worm burdens (S. mansoni [3]; single oral 400 mg/kg at 41 d postinfection, day 47, vs excipient controls): 93%; worm burden reduction, females (S. mansoni [3]; [10]): 95%; worm burden reduction, males (S. mansoni [3]; [10]): 90%; drug-induced efficacy (worm burden reduction) (S. mansoni [4]; WT animals, single oral dose of 400 mg/kg rac-PZQ, 400 mg/kg): ~ 94% and > 90%; reduction in worm burden (S. mansoni [4]; WT mice, single 100 mg/kg bodyweight oral dose, at most): ≤ 53%; Microsomal CLint [5]: 3.2 mL/min/g
O=C(C1CCC(O)CC1)N1CC(=O)N2CCc3ccccc3C2C1 (stereo not drawn) [4OH-PZQ]	19400	5360	197000	42600	98500	27600	108000	21700	19400	5360	AUClast and Cmax in 8HUM animals, fold lower compared to WT animals ([6]; 8HUM 25 mg/kg vs WT 400 mg/kg rac-PZQ, oral, uninfected): ~ fivefold
O=C(C1CCCCC1)N1CC(=O)N2CCc3ccccc3[C@@H]2C1 [R-PZQ]	2860	2210	73600	25800	12000	7740	25700	13200	68300	20800	–
